In brackets after ≈: the same amount, converted by molar mass. Several values for one entry are separate records, joined by “and”; a condition that tells them apart may be missing. Equal values may be shown once. Read-outs that look alike come from different tables or passages of the source.
Columns and labels:
[1] = tested on: M. abscesses (ATCC 19977); experiment: MIC against mycobacterium in Middlebrook 7H9 broth; assay type: cell-based, M. abscessus; settings: for MIC: Mycobacteroides abscessus, ATCC19977
Method: We also examined non-tuberculous mycobacteria (NTM). These are opportunistic pathogens that are rising in clinical significance due to their increasing prevalence and treatment difficulty. The membrane of Mycobacterium is inherently a greater antibiotic permeability barrier due to its high lipid content relative to other pathogens and long-tailed mycolic acids that contributed to its high lipophilic character. The antimicrobial activity of the TPP analogues were also evaluated against Mycobacterium in Middlebrook 7H9 broth.

[2] = tested on: A549 (lung epithelial cells); experiment: Cytotoxicity against mammalian cell line; assay type: cell-based
Method: The cytotoxicity of the TPP COEs was also tested against a mammalian cell line (A549).

E. facium (ATCC 19434) = experiment: MIC, broth microdilution in CA-MHB; assay type: cell-based; settings: for MIC FAC: CA-MHB
Method: (§1) Antimicrobial activity was screened against a range of pathogens made up of clinically relevant ESKAPE pathogens by determination of the minimum inhibitory concentration (MIC) in cation-adjusted Mueller-Hinton broth (CA-MHB).
(§2) Minimum inhibitory concentrations of COEs were determined through a broth microdilution method in accordance with the Clinical and Laboratory Standards Institute (CLSI) guidelines M07-A10. A single bacterial colony was isolated from an overnight culture and grown to mid-log phase (OD600~0.8). Compounds were prepared as a stock solution in DMSO and diluted in a sterile flat-bottom 96-well plate in CA-MHB. Subsequent concentrations were prepared by two-fold dilution of the initial solution. An equivalent volume of bacteria was added to the compound to a final concentration of 5×10^5 cfu/mL. Plates were incubated at 37° C. for 16-18 hours, and read at OD600 using a microplate reader (TECAN Spark®). […] MIC values were determined for each compound in triplicate.

[3] = tested on: E. coli. K12 (ATCC 10798); experiment: MIC, broth microdilution in CA-MHB; assay type: cell-based; settings: for MIC EC: CA-MHB
Method: as §1, §2

[4] = tested on: P. aeruginosa (ATCC47085); experiment: MIC, broth microdilution in CA-MHB; assay type: cell-based; settings: CA-MHB
Method: as §1, §2

S. aureus (ATCC 29213) = experiment: MIC, broth microdilution in CA-MHB; assay type: cell-based
Method: as §1, §2

[5] = tested on: E. faecalis OG1RF (ATCC 47077); experiment: MIC, broth microdilution in CA-MHB; assay type: cell-based; settings: CA-MHB
Method: as §1, §2

[6] = tested on: K. pneumoniae (carbapenem-resistant Enterobacterales) (ATCC BAA1705); experiment: MIC, broth microdilution in CA-MHB; assay type: cell-based; settings: CA-MHB
Method: as §1, §2

[7] = tested on: Methicillin-resistant S. aureus (ATCC BAA1717); experiment: MIC, broth microdilution in CA-MHB; assay type: cell-based; settings: for MIC MRSA: CA-MHB
Method: as §1, §2

A. baumanii (ATCC 17978) = experiment: MIC, broth microdilution in CA-MHB; assay type: cell-based; settings: for MIC AB: CA-MHB
Method: as §1, §2

[8] = phosphate-buffered saline; below 10 μg mL^−1 estimated by turbidimetric screening
Method: The solubility of all the TPP derivatives was determined in phosphate-buffered saline (PBS) (Table S3).

SA = experiment: MIC in physiological-mimicking environments (MHB); assay type: cell-based, S. aureus
Text: (§3) The complexities of the physiological environment often influence drug activity, particularly when cations in solution are implicated in their oligomerization-dependent mechanisms of action, such as for daptomycin. Binding of free drug to plasma proteins effectively reduces the available free concentration of the drug capable of killing bacteria, resulting in lower observable activity. We tested MIC values of DM4P and DM6P in the presence of human serum albumin (40 g L^−1) and high salt concentrations (Table 4). Under these conditions, the antimicrobial activity was minimally affected by these environmental factors, with MICs remaining within a 2-fold level.

PA = experiment: MIC in physiological-mimicking environments (MHB); assay type: cell-based, P. aeruginosa
Text: as §3

MRSA = experiment: Resistance development by serial passaging at 0.5× MIC; assay type: cell-based, S. aureus
Method: (§4) The non-specific action of membrane-active antibiotics lends itself to minimal development of resistance development due to the large metabolic burden involved, unlike traditional antibiotics with a well-defined enzymatic target. Based on this premise, we passaged bacteria incubated with DM6P, or ciprofloxacin (control), at 0.5× MIC to investigate the adaptation of bacteria towards external antibiotic stress. As a control, treatment of MRSA with ciprofloxacin gave rise to antibiotic-resistant mutants within 4 passages, see FIG. 4a. […] Combined with its broad spectrum of activity, this feature opens opportunities for the use of COE antimicrobial agents to address polymicrobial infections with a lower rate of emerging antibiotic resistance.

P. aeruginosa = experiment: as above; assay type: cell-based
Method: as §4

Row | Compound | IC50 [2] | MIC FAC (E. facium (ATCC 19434)) | MIC EC [3] | MIC PA [4] | MIC SA (S. aureus (ATCC 29213)) | MIC FAE [5] | MIC KP [6] | MIC MRSA [7] | MIC ([7]; towards MRSA, Table 3) | MIC AB (A. baumanii (ATCC 17978)) | solubility in PBS [8] | further results
1 | NCC[C@H](O)C(=O)N[C@@H]1C[C@H](N)[C@@H](O[C@H]2O[C@H](CN)[C@@H](O)[C@H](O)[C@H]2O)[C@H](O)[C@H]1O[C@H]1O[C@H](CO)[C@@H](O)[C@H](N)[C@H]1O [Amikacin, reference compound] | – | – | – | – | – | – | – | – | – | – | – | MIC [1]: 8 µg/mL (≈ 13.7 µM)
2 | C[N+](C)(C)CCCCCCCCOc1ccc(/C=C/c2ccc(OCCCCCCCC[N+](C)(C)C)cc2)cc1.[I-].[I-] [Compound D8, reference compound] | 11 µg/mL | 1 µg/mL | 4 µg/mL | >64 µg/mL | 8 µg/mL | 4 µg/mL | 64 µg/mL | 8 µg/mL | 8 µg/mL | 32 µg/mL | – | –
3 | C(=C\c1ccc(OCCCCCC[P+](c2ccccc2)(c2ccccc2)c2ccccc2)cc1)/c1ccc(OCCCCCC[P+](c2ccccc2)(c2ccccc2)c2ccccc2)cc1.[I-].[I-] [Compound D6P] | 13 µg/mL | 1 µg/mL | 2 µg/mL | 8 µg/mL | 2 µg/mL | 1 µg/mL | >16 µg/mL | 2 µg/mL | 2 µg/mL | >16 µg/mL | 18 µg/mL | MIC M. abscesses [1]: 16 µg/mL
4 | C[N+](C)(C)CCCCOc1ccc(/C=C/c2ccc(OCCCC[N+](C)(C)C)cc2)cc1.[I-].[I-] [Compound D4, reference compound] | 548 µg/mL | 64 µg/mL | > 64 µg/mL and 128 µg/mL | >64 µg/mL | >64 µg/mL | 128 µg/mL | >64 µg/mL | >64 µg/mL | > 64 µg/mL | >64 µg/mL | – | –
5 | COc1cc(/C=C/c2ccc(OCCCCCCCC[P+](c3ccccc3)(c3ccccc3)c3ccccc3)c(OC)c2)ccc1OCCCCCCCC[P+](c1ccccc1)(c1ccccc1)c1ccccc1.[I-].[I-] [DM8P] | 10 µg/mL | 1 µg/mL | >4 µg/mL | >4 µg/mL | >4 µg/mL | 1 µg/mL | >4 µg/mL | 4 µg/mL | 4 µg/mL | >4 µg/mL | 4 µg/mL | MIC M. abscesses [1]: 64 µg/mL
6 | CC(=O)NC[C@H]1CN(c2ccc(N3CCOCC3)c(F)c2)C(=O)O1 [Linezolid, reference compound] | – | – | – | – | – | – | – | – | – | – | – | MIC [1]: 8 µg/mL (≈ 23.7 µM)
7 | CN[C@H](CC(C)C)C(=O)N[C@H]1C(=O)N[C@@H](CC(N)=O)C(=O)N[C@H]2C(=O)N[C@H]3C(=O)N[C@H](C(=O)N[C@H](C(=O)O)c4cc(O)cc(O)c4-c4cc3ccc4O)[C@H](O)c3ccc(c(Cl)c3)Oc3cc2cc(c3O[C@@H]2O[C@H](CO)[C@@H](O)[C@H](O)[C@H]2O[C@H]2C[C@](C)(N)[C@H](O)[C@H](C)O2)Oc2ccc(cc2Cl)[C@H]1O [Vancomycin, reference compound] | – | – | – | – | – | – | >128 µg/mL | – | – | – | – | MIC (E. facium (ATCC 19434); read-out: MIC FAC): 1 µg/mL (≈ 0.69 µM); MIC ([3]; Escherichia coli, ATCC10798, read-out: MIC EC): > 128 µg/mL; MIC ([7]; Staphylococcus aureus, ATCC BAA-1717 / MRSA, read-out: MIC MRSA): 1 µg/mL (≈ 0.69 µM); MIC (A. baumanii (ATCC 17978); Acinetobacter baumannii, ATCC17978, read-out: MIC AB): > 128 µg/mL
8 | C[N+](C)(C)CCCCCCOc1ccc(/C=C/c2ccc(OCCCCCC[N+](C)(C)C)cc2)cc1.[I-].[I-] [Compound D6, reference compound] | 39 µg/mL | 8 µg/mL | 16 µg/mL | >64 µg/mL | 32 µg/mL | 32 µg/mL | >64 µg/mL | 32 µg/mL | 32 µg/mL | >64 µg/mL | – | –
9 | Polymyxin B [reference compound] | – | – | 1 µg/mL | 2 µg/mL | – | – | 2 µg/mL | – | – | 4 µg/mL | – | –
10 | C(=C\c1ccc(OCCCCCCCC[P+](c2ccccc2)(c2ccccc2)c2ccccc2)cc1)/c1ccc(OCCCCCCCC[P+](c2ccccc2)(c2ccccc2)c2ccccc2)cc1.[I-].[I-] [Compound D8P] | – | – | – | – | – | – | – | – | – | – | 4 µg/mL | –
11 | C(=C\c1ccc(OCCCC[P+](c2ccccc2)(c2ccccc2)c2ccccc2)cc1)/c1ccc(OCCCC[P+](c2ccccc2)(c2ccccc2)c2ccccc2)cc1.[I-].[I-] [Compound D4P] | 8 µg/mL | 1 µg/mL | 4 µg/mL and 8 µg/mL | 16 µg/mL | 4 µg/mL | 1 µg/mL | 32 µg/mL | 2 µg/mL | 2 µg/mL | 32 µg/mL | 76 µg/mL | MIC M. abscesses [1]: 32 µg/mL
12 | COc1cc(/C=C/c2ccc(OCCCC[P+](c3ccccc3)(c3ccccc3)c3ccccc3)c(OC)c2)ccc1OCCCC[P+](c1ccccc1)(c1ccccc1)c1ccccc1.[I-].[I-] [DM4P] | 9 µg/mL | 1 µg/mL | 4 µg/mL | 8 µg/mL | 2 µg/mL | 1 µg/mL | 8 µg/mL | 2 µg/mL | 2 µg/mL | 4 µg/mL | 138 µg/mL | MIC M. abscesses [1]: 8 µg/mL; MIC CaCl2 (SA; CaCl2 1 mM): 2 µg/mL; MIC MgCl2 (SA; MgCl2 1.25mM): 2 µg/mL; MIC NaCl (SA; NaCl 300 mM): 4 µg/mL; MIC HSA (SA; human serum albumin 40 g L^−1): 2 µg/mL; MIC — (SA; no additive): 2 µg/mL; MIC CaCl2 (PA; CaCl2 1 mM): 8 µg/mL; MIC MgCl2 (PA; MgCl2 1.25mM): 8 µg/mL; MIC NaCl (PA; NaCl 300 mM): 4 µg/mL; MIC HSA (PA; human serum albumin 40 g L^−1): 8 µg/mL; MIC — (PA; no additive): 8 µg/mL
13 | O=C(O)c1cn(C2CC2)c2cc(N3CCNCC3)c(F)cc2c1=O [ciprofloxacin, reference compound] | – | – | – | – | – | – | – | – | – | – | – | passages until antibiotic-resistant mutants arise (MRSA): ≤ 4 passages; resistance development (P. aeruginosa): this development occurred at a slower rate
14 | COc1cc(/C=C/c2ccc(OCCCCCC[P+](CCCO)(CCCO)CCCO)c(OC)c2)ccc1OCCCCCC[P+](CCCO)(CCCO)CCCO.[I-].[I-] [DM6THPP] | >1024 µg/mL | >64 µg/mL | >64 µg/mL | >64 µg/mL | >64 µg/mL | >64 µg/mL | >64 µg/mL | >64 µg/mL | > 64 µg/mL | >64 µg/mL | – | –
